Experiments:
Mucin = test: Mucoadhesion, tensile strength with texture analyzer, towards mucin; settings: upper sample Mucin
Protocol: Mucoadhesion is related to the ability to adhere to the mucosa. […] Hygroscopic formulations absorbs water molecules but at different timescales depending on the composition. Tensile strength using micro balance texture analyzer was used to measure the mucoadhesion. The work needed to separate two layers from each other is calculated as well as the peak measured force.
The microemulsions show quite strong mucoadhesion, with similar tensile strength values. To get some reference values, the mucoadhesion of olive oil, propylene glycol and PGMO were also tested as well as the adhesion of microemulsions towards water. Propylene glycol was chosen to determine if humectant properties on its own had any influence on the adhesion strength.

[1] = pure liquids at 25° C.; cited from earlier work

Compound	Peak force (Mucin)	Mucoadhesion (Mucin; work needed to separate layers)	Surface tension [1]
CC(O)CO (stereo not shown) [Propylene Glycol, propylene glycol]	0.50 ± 0.05 kg	0.051 ± 0.009 kg·s	45.6 mN/m
OCC(O)CO [glycerol]			76 mN/m

From US20170319641A1, “MUCOADHESIVE EMOLLIENT” (BIOGLAN AB, priority 2014, published 2017)
